Activity calls are given as the source filed them.
Tests used:
[1] = molecular target: T1, Corticotropin-releasing factor receptor 2/Corticotropin-releasing factor-binding protein (Homo sapiens, UniProt P24387+Q13324); test: Dose Response confirmation of uHTS hits for small molecule antagonists of the CRF-binding protein and CRF-R2 receptor complex.; format: functional; details: read-out: IC50_Mean
T1 sequence (Q13324 whole entry): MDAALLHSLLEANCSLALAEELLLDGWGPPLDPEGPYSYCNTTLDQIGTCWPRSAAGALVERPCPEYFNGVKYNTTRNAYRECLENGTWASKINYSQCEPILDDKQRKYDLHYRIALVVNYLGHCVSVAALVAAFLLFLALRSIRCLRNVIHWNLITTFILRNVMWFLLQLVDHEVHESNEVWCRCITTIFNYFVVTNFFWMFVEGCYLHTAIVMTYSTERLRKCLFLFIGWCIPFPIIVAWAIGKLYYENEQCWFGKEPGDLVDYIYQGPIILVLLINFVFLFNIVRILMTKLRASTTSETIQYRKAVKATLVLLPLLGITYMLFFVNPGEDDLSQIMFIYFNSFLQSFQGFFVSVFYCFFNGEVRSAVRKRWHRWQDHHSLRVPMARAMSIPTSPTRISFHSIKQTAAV
T1 sequence (P24387 whole entry): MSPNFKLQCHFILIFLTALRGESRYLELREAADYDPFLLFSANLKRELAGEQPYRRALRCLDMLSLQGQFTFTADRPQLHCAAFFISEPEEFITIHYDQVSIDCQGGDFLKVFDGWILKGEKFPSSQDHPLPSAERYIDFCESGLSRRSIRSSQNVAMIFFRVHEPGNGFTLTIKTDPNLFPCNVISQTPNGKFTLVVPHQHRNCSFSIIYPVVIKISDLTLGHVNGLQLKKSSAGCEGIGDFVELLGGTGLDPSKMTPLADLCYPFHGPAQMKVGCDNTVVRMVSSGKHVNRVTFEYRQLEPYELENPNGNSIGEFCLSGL

[2] = molecular target: T2, Eukaryotic translation initiation factor 2-alpha kinase 3 (Homo sapiens, UniProt Q9NZJ5); test: Counterscreen assay for PERK inhibitors: Dose response cell-based high throughput screening assay to measure inhibition of PERK at 6 hours. [Related pubchem assays: 1522, 1416 ]; format: functional
T2 sequence (Q9NZJ5 whole entry): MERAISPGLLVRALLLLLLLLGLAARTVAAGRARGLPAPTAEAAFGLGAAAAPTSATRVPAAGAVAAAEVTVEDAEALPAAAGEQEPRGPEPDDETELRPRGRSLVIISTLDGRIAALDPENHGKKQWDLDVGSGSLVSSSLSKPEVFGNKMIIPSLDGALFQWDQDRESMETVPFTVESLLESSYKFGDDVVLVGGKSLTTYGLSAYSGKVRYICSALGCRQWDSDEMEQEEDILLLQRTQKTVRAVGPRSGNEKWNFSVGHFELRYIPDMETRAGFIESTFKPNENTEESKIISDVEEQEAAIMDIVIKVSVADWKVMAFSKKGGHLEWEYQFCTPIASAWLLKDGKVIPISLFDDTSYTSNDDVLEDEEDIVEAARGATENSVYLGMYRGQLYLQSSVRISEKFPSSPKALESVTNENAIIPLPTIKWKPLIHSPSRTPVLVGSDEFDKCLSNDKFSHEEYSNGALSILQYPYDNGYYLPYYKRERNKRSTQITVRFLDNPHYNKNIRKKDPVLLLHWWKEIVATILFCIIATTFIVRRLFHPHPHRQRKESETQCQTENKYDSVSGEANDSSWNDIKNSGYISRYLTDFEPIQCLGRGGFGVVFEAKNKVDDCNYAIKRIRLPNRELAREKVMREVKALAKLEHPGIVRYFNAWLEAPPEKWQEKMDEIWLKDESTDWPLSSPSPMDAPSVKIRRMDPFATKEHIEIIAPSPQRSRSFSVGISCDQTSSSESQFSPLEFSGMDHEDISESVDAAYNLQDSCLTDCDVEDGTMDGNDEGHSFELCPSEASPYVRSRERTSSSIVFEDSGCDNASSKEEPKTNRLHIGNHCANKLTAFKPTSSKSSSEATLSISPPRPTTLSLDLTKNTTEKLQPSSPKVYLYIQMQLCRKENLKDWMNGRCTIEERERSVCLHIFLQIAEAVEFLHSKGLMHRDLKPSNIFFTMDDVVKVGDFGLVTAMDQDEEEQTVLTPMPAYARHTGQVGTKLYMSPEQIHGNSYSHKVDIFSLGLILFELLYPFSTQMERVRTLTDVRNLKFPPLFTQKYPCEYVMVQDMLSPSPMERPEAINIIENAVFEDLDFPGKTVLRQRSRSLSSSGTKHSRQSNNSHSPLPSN

[3] = molecular target: T2, Eukaryotic translation initiation factor 2-alpha kinase 3; test: Dose response cell-based high-throughput screening assay to measure PERK inhibition. [Related pubchem assays: 1416 ]; format: functional
[4] = molecular target: T1, Corticotropin-releasing factor receptor 2/Corticotropin-releasing factor-binding protein; test: activators of CRF receptor 2 with binding protein – uHTS hits, confirmation (AID 602473); format: functional; details: read-out: EC50_Mean
[5] = viability loss in Vero cells – cytotoxicity control for Vif-APOBEC3G degradation inhibitor project, dose response (AID 1117358); format: functional; details: Vero
[6] = molecular target: G2/mitotic-specific cyclin-B1 (Homo sapiens, UniProt P14635); test: Counterscreen assay for inhibitors of Wee1 degradation: dose response cell-based assay to identify inhibitors of cyclin B degradation. [Related pubchem assays: 1410, 1321 ]; format: functional
Sequence of G2/mitotic-specific cyclin-B1 (P14635 whole entry): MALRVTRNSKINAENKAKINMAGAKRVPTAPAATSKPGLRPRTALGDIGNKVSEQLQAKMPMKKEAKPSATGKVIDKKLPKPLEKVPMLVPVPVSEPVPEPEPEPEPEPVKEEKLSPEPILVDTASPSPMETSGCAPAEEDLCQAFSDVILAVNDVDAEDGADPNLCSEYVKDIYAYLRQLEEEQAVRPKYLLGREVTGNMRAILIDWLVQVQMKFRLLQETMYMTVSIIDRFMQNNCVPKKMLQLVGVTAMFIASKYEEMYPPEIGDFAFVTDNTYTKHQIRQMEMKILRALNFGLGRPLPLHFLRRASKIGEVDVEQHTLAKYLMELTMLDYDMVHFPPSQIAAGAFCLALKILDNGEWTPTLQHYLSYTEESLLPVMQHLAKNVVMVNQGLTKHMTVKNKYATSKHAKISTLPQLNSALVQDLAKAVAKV

Wee1-like protein kinase = Wee1-like protein kinase (Homo sapiens, UniProt P30291); test: Dose Response Cell-based Assay for Inhibitors of Wee1 Degradation. [Related pubchem assays: 1410, 1321 ]; format: functional
Sequence of Wee1-like protein kinase (P30291 whole entry): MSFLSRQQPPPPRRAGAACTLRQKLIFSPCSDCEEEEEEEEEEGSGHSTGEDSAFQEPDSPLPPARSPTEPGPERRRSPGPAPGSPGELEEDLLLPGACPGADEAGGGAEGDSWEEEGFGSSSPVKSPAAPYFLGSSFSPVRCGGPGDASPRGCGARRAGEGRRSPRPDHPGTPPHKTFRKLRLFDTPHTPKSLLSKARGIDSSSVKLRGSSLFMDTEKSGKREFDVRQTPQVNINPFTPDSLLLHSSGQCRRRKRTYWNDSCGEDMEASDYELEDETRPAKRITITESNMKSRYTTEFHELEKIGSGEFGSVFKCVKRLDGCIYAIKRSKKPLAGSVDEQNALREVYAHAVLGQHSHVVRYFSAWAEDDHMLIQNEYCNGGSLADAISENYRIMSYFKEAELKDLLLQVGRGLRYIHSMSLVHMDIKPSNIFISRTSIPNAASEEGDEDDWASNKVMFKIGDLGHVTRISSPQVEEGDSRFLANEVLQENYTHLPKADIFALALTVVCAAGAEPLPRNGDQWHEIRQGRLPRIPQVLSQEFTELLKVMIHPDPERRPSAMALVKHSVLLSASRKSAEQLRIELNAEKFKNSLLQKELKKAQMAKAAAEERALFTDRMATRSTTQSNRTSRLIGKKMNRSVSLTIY

HEK293 [7] = test: PMA/Ionomycin-induced IL-8 production in HEK293- NF-kB-Luc stable cells. [Related pubchem assays: 1299, 1295, 1375, 1287, 1281, 1293, 1291, 1289, 1280, 465, 1364, 1282, 1372, 1365, 1367, 1366, 1266, 1269, 1373, 1292, 1290, 1302, 1371, 1283, 1271, 1294, 1374, 1368, 1369 ]; format: functional, cell-based; details: Homo sapiens
HEK293 [8] = test: TNF Induced NF-kB Luciferase in 293-NF-kB-Luc Stable Cells. [Related pubchem assays: 1266, 1299, 1269, 1373, 1292, 1290, 1302, 1371, 1283, 1270, 1295, 1271, 1375, 1294, 1374, 1281, 1293, 1291, 1289, 1280, 465, 1368, 1364, 1282, 1372, 1365, 1369, 1370, 1367, 1366 ]; format: functional, cell-based; details: Homo sapiens
[9] = molecular target: Luciferin 4-monooxygenase (Photinus pyralis, UniProt P08659); test: In vitro luciferase assay using purified luciferase. [Related pubchem assays: 1299, 1270, 1295, 1375, 1287, 1281, 1293, 1291, 1289, 1280, 465, 1364, 1282, 1372, 1365, 1370, 1367, 1366, 1266, 1373, 1292, 1290, 1302, 1371, 1283, 1271, 1294, 1374, 1368, 1369 ]
Sequence of Luciferin 4-monooxygenase (P08659 whole entry): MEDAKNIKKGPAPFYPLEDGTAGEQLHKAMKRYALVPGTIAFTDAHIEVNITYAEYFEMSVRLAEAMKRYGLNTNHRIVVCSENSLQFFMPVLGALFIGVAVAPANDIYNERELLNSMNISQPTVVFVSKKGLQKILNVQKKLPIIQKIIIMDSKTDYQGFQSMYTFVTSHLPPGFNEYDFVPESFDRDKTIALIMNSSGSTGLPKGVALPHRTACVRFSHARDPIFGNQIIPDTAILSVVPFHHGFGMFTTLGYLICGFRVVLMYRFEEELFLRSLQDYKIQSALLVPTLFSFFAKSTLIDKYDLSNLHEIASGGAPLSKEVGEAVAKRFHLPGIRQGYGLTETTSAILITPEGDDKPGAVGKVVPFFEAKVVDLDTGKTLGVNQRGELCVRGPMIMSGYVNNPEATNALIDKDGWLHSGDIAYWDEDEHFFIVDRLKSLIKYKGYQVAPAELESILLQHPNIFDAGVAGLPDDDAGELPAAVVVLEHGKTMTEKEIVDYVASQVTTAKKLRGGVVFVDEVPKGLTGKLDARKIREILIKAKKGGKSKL

HEK293 [10] = test: Cytotoxicity assay in HEK293 cells. [Related pubchem assays (depositor defined):AID1266, AID1269, AID1270, AID1271, AID1280, AID1281, AID1282, AID1283, AID1287, AID1289, AID1290, AID1291, AID1292, AID1293, AID1294, AID1295, AID1299, AID1302, AID1364, AID1365, AID1366, AID1367, AID1369, AID1370, AID1371, AID1372, AID1373, AID1374, AID1375, AID1384 …; format: functional, cell-based; details: Homo sapiens
HEK293 [11] = test: PMA/Ionomycin induced NF-kB luciferase assay in 293- NF-kB-Luc stable cells. [Related pubchem assays: 1299, 1270, 1295, 1375, 1287, 1281, 1293, 1291, 1289, 1280, 465, 1364, 1282, 1372, 1365, 1370, 1367, 1366, 1269, 1373, 1292, 1290, 1302, 1371, 1283, 1271, 1294, 1374, 1368, 1369 ]; format: functional, cell-based; details: Homo sapiens
[12] = molecular target: T3, Short transient receptor potential channel 4 (Mus musculus, UniProt Q9QUQ5); test: calcium entry via TRPC4 opening agents – cell-based, HEK293 TRPC4/mu-opioid, Fluo-4 calcium, dose response (AID 434937); format: functional
T3 sequence (Q9QUQ5 whole entry): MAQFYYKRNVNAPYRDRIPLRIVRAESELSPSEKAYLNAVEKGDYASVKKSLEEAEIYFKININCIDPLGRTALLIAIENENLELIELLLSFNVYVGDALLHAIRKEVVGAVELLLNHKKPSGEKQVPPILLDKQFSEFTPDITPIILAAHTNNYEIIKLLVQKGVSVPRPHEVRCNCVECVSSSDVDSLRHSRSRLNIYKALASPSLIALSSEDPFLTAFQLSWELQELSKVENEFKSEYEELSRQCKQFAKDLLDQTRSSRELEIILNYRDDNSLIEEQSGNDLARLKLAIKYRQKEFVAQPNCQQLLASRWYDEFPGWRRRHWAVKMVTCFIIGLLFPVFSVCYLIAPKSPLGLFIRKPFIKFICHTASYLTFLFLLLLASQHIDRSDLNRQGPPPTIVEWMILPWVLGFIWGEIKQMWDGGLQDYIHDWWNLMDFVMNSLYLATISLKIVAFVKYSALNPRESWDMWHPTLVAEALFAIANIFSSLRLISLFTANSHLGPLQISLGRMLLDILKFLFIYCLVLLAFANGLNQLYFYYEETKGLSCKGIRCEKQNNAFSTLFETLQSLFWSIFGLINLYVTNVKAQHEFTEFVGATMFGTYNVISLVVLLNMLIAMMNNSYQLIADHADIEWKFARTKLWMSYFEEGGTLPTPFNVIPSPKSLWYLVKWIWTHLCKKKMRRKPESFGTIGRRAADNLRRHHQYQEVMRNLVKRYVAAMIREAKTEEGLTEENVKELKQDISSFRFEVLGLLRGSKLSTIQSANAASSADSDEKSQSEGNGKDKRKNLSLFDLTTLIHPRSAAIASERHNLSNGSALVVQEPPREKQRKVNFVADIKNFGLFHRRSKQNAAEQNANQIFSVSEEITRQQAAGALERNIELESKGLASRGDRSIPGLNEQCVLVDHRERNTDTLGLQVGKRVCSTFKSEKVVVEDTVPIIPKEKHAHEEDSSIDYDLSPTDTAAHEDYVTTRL

NS3 = NS3 (Hepatitis C virus, UniProt A3EZJ3); test: PubChem AID 2173; parameters: species or system Hepacivirus hominis
Sequence of NS3 (A3EZJ3 whole entry): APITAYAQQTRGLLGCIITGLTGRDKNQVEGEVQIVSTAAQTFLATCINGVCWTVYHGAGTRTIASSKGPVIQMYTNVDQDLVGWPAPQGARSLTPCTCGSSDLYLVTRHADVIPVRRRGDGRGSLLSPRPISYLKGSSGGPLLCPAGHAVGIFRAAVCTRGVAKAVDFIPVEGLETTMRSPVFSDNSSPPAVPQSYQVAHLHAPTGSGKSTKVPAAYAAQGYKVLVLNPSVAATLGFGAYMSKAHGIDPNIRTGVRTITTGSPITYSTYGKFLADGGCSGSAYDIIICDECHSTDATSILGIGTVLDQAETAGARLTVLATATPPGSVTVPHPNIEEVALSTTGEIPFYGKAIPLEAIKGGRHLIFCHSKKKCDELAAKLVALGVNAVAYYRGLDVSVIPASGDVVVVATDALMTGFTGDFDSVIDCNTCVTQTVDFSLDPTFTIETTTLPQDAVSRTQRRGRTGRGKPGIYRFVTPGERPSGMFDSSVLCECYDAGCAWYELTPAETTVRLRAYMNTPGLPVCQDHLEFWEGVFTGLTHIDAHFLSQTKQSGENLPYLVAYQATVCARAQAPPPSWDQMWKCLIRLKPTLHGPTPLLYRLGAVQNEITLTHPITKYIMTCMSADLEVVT

## C=CCN(c1ccccc1)S(=O)(=O)c1cccc(C(=O)O)c1
[1]
  IC50: > 47.1 µM (inactive)
[2]
  EC50: > 55.7 µM (not active)
[3]
  EC50: > 55.7 µM (not active)
[4]
  EC50: > 53 µM (inactive)

## COc1ccc(/C=N/NC(=O)c2ccc3ccccc3c2)cc1OS(=O)(=O)c1ccc(NC(C)=O)cc1
[5]
  CC50: > 40 µM (active)
[6]
  EC50: > 49.7 µM (not active)
Wee1-like protein kinase
  EC50: > 49.7 µM (not active)

## COc1cc(NC(=O)c2cccc3c2C(=O)N(Cc2cccnc2)C3)cc(OC)c1OC
HEK293 [7]
  EC50: 13.9 µM (not active)
HEK293 [8]
  EC50: > 8 µM (not active)
[9]
  EC50: > 8 µM (not active)
HEK293 [10]
  EC50: > 8 µM (inactive)
HEK293 [11]
  EC50: 0.744 µM (active)

## Cc1occc1C(=O)NNC(=S)NC(=O)COc1ccc(Cl)cc1Cl
[12]
  EC50: 5.96 µM (active)
NS3
  IC50: 15.2 µM (not active)
